Test results as given in article PMC11434080, “Acetylation of Oleanolic Acid Dimers as a Method of Synthesis of Powerful Cytotoxic Agents” (Molecules, 2024).
“Also recorded” adds a separate entry of the source.

Experiments:
[1] = design: method as in PMID 39000101, PMID 39125028; conditions: previously analyzed derivatives; cited from earlier work
[2] = tested on: SKBR-3; experiment: MTT assay, SKBR-3; type: cell-based, human; conditions: for IC50: SK-BR-3, MTT assay, SKBR-3 human breast adenocarcinoma, value (SD); for SKBR-3 SI: Selectivity Index = IC50 HDF / IC50 SKBR-3
Procedure: (§1) The cytotoxic activity of oleanolic acid (mother compound, 1, Figure 2) and its 14 derivatives (3a–3n, Figure 2) was tested in vitro using the standard MTT method based on viability assay, e.g., [44] against carcinoma cell lines: SKBR-3, SKOV-3, PC-3, U-87, and one normal cell line: HDF.
(§2) Human cancer cells: SKBR-3 and SKOV-3 were cultured in McCoy’s Modified Medium; PC-3 was cultured in an F-12K medium; U-87 was cultured in EMEM medium; HDF was cultured in Fibroblast Basal Medium. Each medium was supplemented with 10% fetal bovine serum, 1% L- glutamine, and 1% penicillin/streptomycin solution. The cell lines were kept in an incubator at 37 °C. All the cell lines and mediums were obtained from the American Type Culture Collection (ATCC) supplied by LGC-Standards (Lomianki, Poland).
(§3) The MTT assay was conducted as described earlier, e.g., [44]. In short, this method is based on the reaction between mitochondria enzymes (dehydrogenases) of tested cell lines and 3-(4,5-dimethylthiazol-2-yl)-2,5-diphenyltetrazolium bromide (MTT). The final product of this reaction gives violet formazan crystals. The number of live cells is proportional to the amount of formazan and is represented by the violet dye reagent. The details of the experiments are given in [44].

[3] = tested on: SKOV-3; experiment: MTT assay, SKOV-3; type: cell-based, human; conditions: for IC50: SK-OV-3, MTT assay, SKOV-3 human ovarian cystadenocarcinoma, value (SD); for SKOV-3 SI: Selectivity Index = IC50 HDF / IC50 SKOV-3
Procedure: as §1, §2, §3

[4] = tested on: PC-3; experiment: MTT assay, PC-3; type: cell-based, human; conditions: for IC50: MTT assay, PC-3 human prostate carcinoma, value (SD), read-out: B IC50 (SD); for B SI: Selectivity Index = IC50 HDF / IC50 of PC-3
Procedure: as §1, §2, §3

[5] = tested on: U-87; experiment: MTT assay, U-87; type: cell-based, human; conditions: for U-87 SI: Selectivity Index = IC50 HDF / IC50 U-87; for IC50: U-87 MG, MTT assay, U-87 human glioblastoma, value (SD)
Procedure: as §1, §2, §3

[6] = tested on: HDF; experiment: MTT assay, HDF normal cell line; type: cell-based; conditions: Homo sapiens, value (SD)
Procedure: as §1, §2, §3

[7] = Solubility in ethanol observed at crystallization; type: physicochemical; conditions: room temperature
[8] = tested on: SKBR-3, SKOV-3, PC-3, and U-87 cancer cell lines; experiment: MTT assay, four cancer cell lines taken together; type: cell-based, human; conditions: MTT, across SKBR-3, SKOV-3, PC-3, U-87
Procedure: as §1, §2, §3

[9] = CUPRAC antioxidant assay; conditions: Figure 3
Description: (§4) The results of the antioxidant activity of oleanolic acid (1) and Acetylated Oleanolic Acid Dimers (AcOADs) 3a–3n evaluated with CUPRAC and DPPH assays are given in Figure 3. The results are presented as % inhibition of the copper(II) ions and Trolox equivalent (blue bars) calculated from the standard curve, presented in the Supplementary Materials (Supplementary Materials S02, Figure S1) and as % inhibition of the DPPH radical and Trolox equivalent (pink bars), calculated from the standard curve presented in the Supplementary Materials (Supplementary Materials S02, Figure S2).
(§5) The CUPRAC reagent (7.5 mM ethanolic 96% neocuproine solution, 10 mM CuCl2 × H2O solution, and an ammonium acetate buffer of pH 7.0) and DPPH reagent (2,2-diphenyl-1-picrylhydrazyl 0.2 mM solution) were applied.
(§6) The DPPH assay relies on the ability of an antioxidant to donate a hydrogen atom or an electron to the stable DPPH radical, resulting in its reduction and subsequent color change. In contrast, the CUPRAC method measures the reducing power of a sample by quantifying its ability to convert the Cu-neocuproine reagent complex into the Cu(I) form. The results are presented as % inhibition of the copper(II) ions and Trolox equivalent (blue bars) calculated from the standard curve (Supplementary Materails S02, Figure S1) and as % inhibition of the DPPH radical and Trolox equivalent (pink bars), calculated from the standard curve (Supplementary Materials S02, Figure S2). The details of the experiments are given in [46].

[10] = DPPH antioxidant assay; conditions: Figure 3
Description: as §4, §5, §6

[11] = design: method as in PMID 39000101, PMID 39125028; conditions: previously analyzed derivatives; cited from earlier work; remark: listed apart in the source

SMILES | CUPRAC activity (in words), previous analysis [1] | IC50 [2] [µM] | SKBR-3 SI [2] | IC50 [3] [µM] | SKOV-3 SI [3] | IC50 [4] [µM] | B SI [4] | U-87 SI [5] | IC50 [5] [µM] | IC50 [6] [µM] | IC50 ([8]; Homo sapiens) [µM] | CUPRAC activity (in words) [9] | other results
CC1(C)CCC2(C(=O)OCCCCCCCCOC(=O)C34CCC(C)(C)CC3C3=CCC5C6(C)CCC(O)C(C)(C)C6CCC5(C)C3(C)CC4)CCC3(C)C(=CCC4C5(C)CCC(O)C(C)(C)C5CCC43C)C2C1 (stereo not shown) [Compound 2j] | high CUPRAC values |  |  |  |  |  |  |  |  |  |  |  | 
CC(=O)OC1CCC2(C)C(CCC3(C)C2CC=C2C4CC(C)(C)CCC4(C(=O)OCCCCCCCCCCCCOC(=O)C45CCC(C)(C)CC4C4=CCC6C7(C)CCC(OC(C)=O)C(C)(C)C7CCC6(C)C4(C)CC5)CCC23C)C1(C)C (stereo not shown) [Compound 3n] |  | 9.69 | 1.52 | 10.2 | 1.43 | 9.49 | 1.55 | 1.45 | 10.2 | 14.7 |  |  | solubility in ethanol [7]: well soluble
CC1(C)CCC2(C(=O)OCCCCCCCCCCCOC(=O)C34CCC(C)(C)CC3C3=CCC5C6(C)CCC(O)C(C)(C)C6CCC5(C)C3(C)CC4)CCC3(C)C(=CCC4C5(C)CCC(O)C(C)(C)C5CCC43C)C2C1 (stereo not shown) [Compound 2m] | high CUPRAC values |  |  |  |  |  |  |  |  |  |  |  | 
CC1(C)CCC2(C(=O)OCCCCCCCOC(=O)C34CCC(C)(C)CC3C3=CCC5C6(C)CCC(O)C(C)(C)C6CCC5(C)C3(C)CC4)CCC3(C)C(=CCC4C5(C)CCC(O)C(C)(C)C5CCC43C)C2C1 (stereo not shown) [Compound 2i] | high CUPRAC values |  |  |  |  |  |  |  |  |  |  |  | 
CC(=O)OC1CCC2(C)C(CCC3(C)C2CC=C2C4CC(C)(C)CCC4(C(=O)OCCCCCCCCCCCOC(=O)C45CCC(C)(C)CC4C4=CCC6C7(C)CCC(OC(C)=O)C(C)(C)C7CCC6(C)C4(C)CC5)CCC23C)C1(C)C (stereo not shown) [Compound 3m] |  | 1.78 | 2.59 | 2.31 | 2.00 | 1.76 | 2.62 | 2.52 | 1.83 | 4.62 | ~2 | highest CUPRAC activity | IC50 [8]: ≤ 2 µM; solubility in ethanol [7]: well soluble
CC(=O)OC1CCC2(C)C(CCC3(C)C2CC=C2C4CC(C)(C)CCC4(C(=O)OCCOC(=O)C45CCC(C)(C)CC4C4=CCC6C7(C)CCC(OC(C)=O)C(C)(C)C7CCC6(C)C4(C)CC5)CCC23C)C1(C)C (stereo not shown) [Compound 3b] |  | 2.97 | 2.37 | 3.04 | 2.32 | 3.12 | 2.26 | 2.27 | 3.1 | 7.05 | 2.5 to 4.5 | highest CUPRAC activity; also recorded: high CUPRAC activity | DPPH activity (in words) [10]: low DPPH activity
CC(=O)OC1CCC2(C)C(CCC3(C)C2CC=C2C4CC(C)(C)CCC4(C(=O)OCOC(=O)C45CCC(C)(C)CC4C4=CCC6C7(C)CCC(OC(C)=O)C(C)(C)C7CCC6(C)C4(C)CC5)CCC23C)C1(C)C (stereo not shown) [Compound 3a] |  | 2.04 |  |  |  | 2.26 |  |  | 2.03 | 6.63 | ~2 | moderate CUPRAC activity | DPPH activity (in words) [10]: higher antioxidant activity than OA; also recorded: high DPPH activity; melting point: 286 to 288 °C
CC1(C)CCC2(C(=O)OCCCCCOC(=O)C34CCC(C)(C)CC3C3=CCC5C6(C)CCC(O)C(C)(C)C6CCC5(C)C3(C)CC4)CCC3(C)C(=CCC4C5(C)CCC(O)C(C)(C)C5CCC43C)C2C1 (stereo not shown) [Compound 2g] | high CUPRAC values |  |  |  |  |  |  |  |  |  |  |  | 
CC1(C)CCC2(C(=O)OCOC(=O)C34CCC(C)(C)CC3C3=CCC5C6(C)CCC(O)C(C)(C)C6CCC5(C)C3(C)CC4)CCC3(C)C(=CCC4C5(C)CCC(O)C(C)(C)C5CCC43C)C2C1 (stereo not shown) [Compound 2a] | lower CUPRAC activity |  |  |  |  |  |  |  |  |  |  |  | DPPH activity (in words), previous analysis [11]: high DPPH activity
